The target of the experiment is T1, WIZ (Homo sapiens, UniProt O95785+Q96SW2).
T1 construct: expressed in transfected cells
The experiment is described as follows: Quantification of WIZ protein levels in HiBit tag fusion protein assay (293T cells). Also noted: Dmax: dose or concentration left out as unconfirmed. The conditions noted are these: for remaining activity at 25 µM / Dmax at 25 µM / Dmax: HEK-293T; for remaining activity at 25 µM: read-out: WIZ Amax; for Dmax at 25 µM / % degradation of WIZ (100 − Amax): 100 − Amax, at 25 uM; for Dmax at 25 µM / Dmax: read-out: % degradation of WIZ (100 − Amax); for DC50: WIZ HiBit assay in 293T cells, about 18 hours, 10-point 5-fold dilution, top 25 μM, read-out: WIZ AC50. It is filed as cell-based. On the procedure: The HiBit system from Promega was used to develop high-throughput and quantitative assays to measure changes in WIZ protein levels in response to compounds. The HiBit tag was derived from a split Nanoluciferase and has the following protein sequence: […] (SEQ ID NO: 1). The complementary fragment of Nanoluciferase (known as LgBit, from Promega), was added to the HiBit tag to form an active Nanoluciferase enzyme whose activity can be precisely measured. In this way, the levels of a fusion protein with the HiBit tag can be quantified in cell lysates.
Lentiviral vectors, based on the Invitrogen™ pLenti6.2/V5 DEST backbone were constructed that places the HiBit tag upstream of WIZ and expressed the fusion protein from an HSVTK promotor.
To ensure moderate and consistent expression of the HiBit-WIZ fusion protein across all cells in the population, stable cell lines were constructed from cells harboring a single copy of the construct. Lentivirus packaged with the constructs were made using the ViraPowerTMkit from Invitrogen™. 293T cells from ATCC (Catalog number: CRL-3216), were infected with the virus at low multiplicity of infection and selected by 5 μg/mL blasticidin in culture media for 2 weeks.
The levels of HiBit-WIZ tagged fusion proteins in compound-treated cell lines were measured as follows:
On day 1, cells were diluted to 1.0×10^6 cells/ml in normal growth medium. 20 μL of cell suspension were plated in each well of a solid white 384-well plate. Plates were incubated overnight in a 37° C. and 5% CO2 humidified tissue culture incubator.
On day 2, serial dilutions of compounds were made in 384-well plates. Compound plates were set up with DMSO in columns 1, 2, 23, 24, and 10-point compound dilution series in column 3-12 and column 13-22. 10 mM stock solution of compound were placed into column 3 or 13 and a 1:5 serial dilution was carried out until there was a 10-point dilution series per compound. 50 nL of diluted compounds were transferred into the plated cells by Echo® (Labcyte) acoustic transfer. The highest concentration of compound was 25 μM. Plates were incubated overnight (about 18 hours) in a 37° C. and 5% CO2 humidified tissue culture incubator.
On day 3, plates were removed from the incubator and allowed to equilibrate at room temperature for 60 minutes. HiBit substrate (Nano-Glo® HiBit Lytic Detection System, Promega Catalogue number: N3050) was added as described by the manufacturers protocols. Plates were incubated at room temperature for 30 minutes and luminescence was read using an EnVision® reader (PerkinElmer®). Data was analyzed and visualized using the Spotfire® software package.
WIZ Amax reflects the DMSO-normalized, curve-fitted percentage of WIZ-HiBit remaining at 25 uM. It was calculated by normalizing DMSO controls to 100%, parametric curve fitting of the dose response data (10-point, 5-fold), followed by calculation of response at 25 uM using the fitted equation.
(In general: With HiBiT, luminescence reflects the tagged protein that the partner subunit can reach.)

Where [1] appears, read: DMSO-normalized, curve-fitted percentage of WIZ-HiBit remaining at 25 uM.

The values below come from US12103919B2, “3-(5-oxy)-1-oxoisoindolin-2-yl)piperidine-2,6-dione derivatives and uses thereof” (NOVARTIS AG, priority 2021, dated 2024).

Structures are written as SMILES. Read-outs that look alike come from different tables or passages of the source.

T1 sequence (O95785 whole entry): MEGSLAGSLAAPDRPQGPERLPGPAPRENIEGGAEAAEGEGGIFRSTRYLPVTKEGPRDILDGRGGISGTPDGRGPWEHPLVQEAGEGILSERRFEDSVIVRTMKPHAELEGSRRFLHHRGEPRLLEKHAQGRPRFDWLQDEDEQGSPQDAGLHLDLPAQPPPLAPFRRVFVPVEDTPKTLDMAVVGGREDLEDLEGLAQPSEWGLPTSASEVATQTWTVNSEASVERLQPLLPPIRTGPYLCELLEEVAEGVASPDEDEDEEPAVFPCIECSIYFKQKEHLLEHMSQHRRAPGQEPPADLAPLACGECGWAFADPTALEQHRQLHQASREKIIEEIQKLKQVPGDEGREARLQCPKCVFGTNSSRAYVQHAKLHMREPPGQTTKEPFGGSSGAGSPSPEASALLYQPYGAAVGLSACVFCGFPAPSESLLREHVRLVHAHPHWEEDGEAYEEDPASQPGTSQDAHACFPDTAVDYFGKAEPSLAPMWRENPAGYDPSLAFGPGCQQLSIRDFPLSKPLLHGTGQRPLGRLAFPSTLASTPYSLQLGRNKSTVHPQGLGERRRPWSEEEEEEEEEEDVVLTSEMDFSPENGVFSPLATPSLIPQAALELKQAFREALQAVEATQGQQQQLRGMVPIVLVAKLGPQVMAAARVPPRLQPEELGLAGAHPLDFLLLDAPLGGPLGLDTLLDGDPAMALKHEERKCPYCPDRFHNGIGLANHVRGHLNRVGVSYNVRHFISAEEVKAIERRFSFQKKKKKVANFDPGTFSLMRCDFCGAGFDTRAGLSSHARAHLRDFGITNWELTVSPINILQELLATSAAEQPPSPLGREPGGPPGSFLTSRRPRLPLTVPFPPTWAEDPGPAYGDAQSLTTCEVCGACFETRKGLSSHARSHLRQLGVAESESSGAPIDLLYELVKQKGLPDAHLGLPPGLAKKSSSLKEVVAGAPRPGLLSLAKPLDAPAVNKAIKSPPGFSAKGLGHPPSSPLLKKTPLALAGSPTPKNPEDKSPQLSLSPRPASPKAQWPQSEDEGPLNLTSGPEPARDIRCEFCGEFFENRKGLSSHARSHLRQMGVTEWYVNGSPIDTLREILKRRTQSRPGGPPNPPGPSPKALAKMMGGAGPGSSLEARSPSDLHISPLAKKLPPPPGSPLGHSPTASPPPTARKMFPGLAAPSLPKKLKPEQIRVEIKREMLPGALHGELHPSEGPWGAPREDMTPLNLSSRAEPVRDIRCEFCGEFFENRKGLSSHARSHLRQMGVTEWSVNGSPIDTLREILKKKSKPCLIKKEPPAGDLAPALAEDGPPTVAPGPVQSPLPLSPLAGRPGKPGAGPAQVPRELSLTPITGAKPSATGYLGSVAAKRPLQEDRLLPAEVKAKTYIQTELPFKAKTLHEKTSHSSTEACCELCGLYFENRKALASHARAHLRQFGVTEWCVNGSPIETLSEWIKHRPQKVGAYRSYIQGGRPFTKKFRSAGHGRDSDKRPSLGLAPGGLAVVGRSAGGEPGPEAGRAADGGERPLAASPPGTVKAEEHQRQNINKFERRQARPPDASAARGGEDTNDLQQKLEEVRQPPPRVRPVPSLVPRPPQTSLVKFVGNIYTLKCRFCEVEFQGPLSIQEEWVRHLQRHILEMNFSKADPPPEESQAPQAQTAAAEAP
T1 sequence (Q96SW2 whole entry): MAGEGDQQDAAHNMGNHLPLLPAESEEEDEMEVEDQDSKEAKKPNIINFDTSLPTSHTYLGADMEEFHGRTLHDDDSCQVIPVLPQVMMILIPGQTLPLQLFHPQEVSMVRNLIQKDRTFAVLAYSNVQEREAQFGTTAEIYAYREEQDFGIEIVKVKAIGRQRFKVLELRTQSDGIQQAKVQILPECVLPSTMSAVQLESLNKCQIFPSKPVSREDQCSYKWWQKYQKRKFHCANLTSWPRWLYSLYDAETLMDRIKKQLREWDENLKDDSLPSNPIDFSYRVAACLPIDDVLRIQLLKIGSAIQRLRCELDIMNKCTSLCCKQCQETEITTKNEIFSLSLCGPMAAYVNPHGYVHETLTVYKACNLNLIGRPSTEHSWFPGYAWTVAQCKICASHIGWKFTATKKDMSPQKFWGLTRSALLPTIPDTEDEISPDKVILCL
T1 sequence (Q16531 whole entry partner): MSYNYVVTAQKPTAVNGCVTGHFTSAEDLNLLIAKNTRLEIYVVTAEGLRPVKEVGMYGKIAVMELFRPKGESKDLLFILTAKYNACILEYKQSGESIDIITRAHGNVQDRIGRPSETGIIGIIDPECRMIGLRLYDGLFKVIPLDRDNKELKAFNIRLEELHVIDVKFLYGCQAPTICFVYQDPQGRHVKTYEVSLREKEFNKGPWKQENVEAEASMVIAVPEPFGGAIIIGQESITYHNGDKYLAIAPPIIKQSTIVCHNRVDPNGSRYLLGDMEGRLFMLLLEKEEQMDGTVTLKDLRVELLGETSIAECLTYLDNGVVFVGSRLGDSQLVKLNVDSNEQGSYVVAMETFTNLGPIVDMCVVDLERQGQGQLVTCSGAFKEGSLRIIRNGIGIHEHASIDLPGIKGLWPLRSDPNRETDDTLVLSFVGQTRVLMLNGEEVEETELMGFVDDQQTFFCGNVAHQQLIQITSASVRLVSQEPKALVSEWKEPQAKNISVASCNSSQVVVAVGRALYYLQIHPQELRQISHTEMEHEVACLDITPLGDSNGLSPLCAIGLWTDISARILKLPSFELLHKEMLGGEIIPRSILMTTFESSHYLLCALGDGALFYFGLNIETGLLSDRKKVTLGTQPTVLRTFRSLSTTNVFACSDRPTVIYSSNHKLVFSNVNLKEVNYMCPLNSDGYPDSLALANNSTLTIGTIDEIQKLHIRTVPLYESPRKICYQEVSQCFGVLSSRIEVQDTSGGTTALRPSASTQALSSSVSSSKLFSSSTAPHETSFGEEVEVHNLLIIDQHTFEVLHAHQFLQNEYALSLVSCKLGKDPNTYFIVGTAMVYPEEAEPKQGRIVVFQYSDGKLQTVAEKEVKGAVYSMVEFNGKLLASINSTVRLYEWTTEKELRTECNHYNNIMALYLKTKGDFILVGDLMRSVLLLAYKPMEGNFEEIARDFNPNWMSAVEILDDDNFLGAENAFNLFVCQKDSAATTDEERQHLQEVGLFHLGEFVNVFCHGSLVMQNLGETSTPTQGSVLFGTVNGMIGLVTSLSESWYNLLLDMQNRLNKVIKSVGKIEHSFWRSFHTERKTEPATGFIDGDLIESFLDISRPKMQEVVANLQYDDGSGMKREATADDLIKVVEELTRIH

Consider `O=C1CCC(N2Cc3cc(O[C@@H]4CCCN(C5CC(F)(F)C5)C4)ccc3C2=O)C(=O)N1` (mixture of isomers) [Example 29, 3-(5-(((R)-1-(3,3-difluorocyclobutyl)piperidin-3-yl)oxy)-1-oxoisoindolin-2-yl)piperidine-2,6-dione], for which the Dmax at 25 µM was determined as 31% and the DC50 worked out at 82 nM. The remaining activity at 25 µM under setting [1] worked out at 69%.

In the case of `CCN1C[C@H](C)C[C@@H](Oc2ccc3c(c2)CN(C2CCC(=O)NC2=O)C3=O)C1` (mixture of isomers) [Example 75-1, 3-(5-(((3R,5R)-1-ethyl-5-methylpiperidin-3-yl)oxy)-1-oxoisoindolin-2-yl)piperidine-2,6-dione], the Dmax was 86.6%, the remaining activity at 25 µM is 13.4% and the DC50 came to 0.9 nM.

On to `CCN1C[C@H](O)C[C@@H](Oc2ccc3c(c2)CN(C2CCC(=O)NC2=O)C3=O)C1` (mixture of isomers) [Example 34, rac-3-(5-(((3R,5R)-1-Ethyl-5-hydroxypiperidin-3-yl)oxy)-1-oxoisoindolin-2-yl)piperidine-2,6-dione], for which the Dmax is 80%, the remaining activity at 25 µM was 20% and the DC50 was determined as 15 nM.

`CCN1CC[C@H](C)[C@@H](Oc2ccc3c(c2)CN(C2CCC(=O)NC2=O)C3=O)C1` (mixture of isomers) [Example 35, rac-3-(5-(((3R,4S)-1-ethyl-4-methylpiperidin-3-yl)oxy)-1-oxoisoindolin-2-yl)piperidine-2,6-dione]: the Dmax amounted to 31.9%, the remaining activity at 25 µM was 68.1% and the DC50 stood at 26 nM.

With `CCN1CCC[C@@H](Oc2ccc3c(c2)CN(C2CCC(=O)NC2=O)C3=O)[C@H]1C` (mixture of isomers) [Example 44, rac-3-(5-(((2R,3R)-1-ethyl-2-methylpiperidin-3-yl)oxy)-1-oxoisoindolin-2-yl)piperidine-2,6-dione], the Dmax was 15.8%, the remaining activity at 25 µM amounted to 84.2% and the DC50 came out at 60 nM.

Turning to `CCN1C[C@@H](C)C[C@@H](Oc2ccc3c(c2)CN(C2CCC(=O)NC2=O)C3=O)C1` (mixture of isomers) [Example 45, rac-3-(5-(((3R,5S)-1-ethyl-5-methylpiperidin-3-yl)oxy)-1-oxoisoindolin-2-yl)piperidine-2,6-dione], the Dmax was found to be 43.7%, the remaining activity at 25 µM worked out at 56.3% and the DC50 turned out to be 7.6 nM.

Regarding `CCN1CC[C@@H](C)[C@@H](Oc2ccc3c(c2)CN(C2CCC(=O)NC2=O)C3=O)C1` (mixture of isomers) [Example 46, rac-3-(5-(((3R,4R)-1-ethyl-4-methylpiperidin-3-yl)oxy)-1-oxoisoindolin-2-yl)piperidine-2,6-dione], the remaining activity at 25 µM is 101% and the DC50 is greater than 25000 nM.

On to `CCN1C[C@@H](O)C[C@@H](Oc2ccc3c(c2)CN(C2CCC(=O)NC2=O)C3=O)C1` (mixture of isomers) [Example 47, rac-3-(5-(((3R,5S)-1-ethyl-5-hydroxypiperidin-3-yl)oxy)-1-oxoisoindolin-2-yl)piperidine-2,6-dione], for which the Dmax was determined as 22.8%, the remaining activity at 25 µM turned out to be 77.2% and the DC50 stood at 88 nM.

Consider `CCN1C[C@H](C)C[C@@H](Oc2ccc3c(c2)CN(C2CCC(=O)NC2=O)C3=O)C1` (mixture of isomers) [Example 52, rac-3-(5-(((3R,5R)-1-Ethyl-5-methylpiperidin-3-yl)oxy)-1-oxoisoindolin-2-yl)piperidine-2,6-dione], for which the Dmax amounted to 76.2%, the remaining activity at 25 µM turned out to be 23.8% and the DC50 is 5.5 nM.

As for `CCN1CCC2(CCC2)C(Oc2ccc3c(c2)CN(C2CCC(=O)NC2=O)C3=O)C1` (racemic) [Example 54, rac-3-(5-((7-ethyl-7-azaspiro[3.5]nonan-5-yl)oxy)-1-oxoisoindolin-2-yl)piperidine-2,6-dione], the remaining activity at 25 µM came out at 102% and the DC50 is greater than 25000 nM.

Turning to `CCN1CC2CC(Oc3ccc4c(c3)CN(C3CCC(=O)NC3=O)C4=O)C1C2` (racemic) [Example 62, rac-3-(5-((2-ethyl-2-azabicyclo[2.2.1]heptan-6-yl)oxy)-1-oxoisoindolin-2-yl)piperidine-2,6-dione], the Dmax was 27.1%, the remaining activity at 25 µM was 72.9% and the DC50 amounted to 83 nM.

Consider `CCN1C[C@@H]2C[C@@H]2[C@H](Oc2ccc3c(c2)CN(C2CCC(=O)NC2=O)C3=O)C1` (relative stereo) [Example 53, 3-(5-(((1R*,5S*,6S*)-3-ethyl-3-azabicyclo[4.1.0]heptan-5-yl)oxy)-1-oxoisoindolin-2-yl)piperidine-2,6-dione], for which the Dmax at 25 µM came to 21.8% and the DC50 was determined as 71 nM. The remaining activity at 25 µM under setting [1] came to 78.2%.

Take `CCN1CC[C@H](F)[C@@H](Oc2ccc3c(c2)CN(C2CCC(=O)NC2=O)C3=O)C1` (relative stereo) [Example 55, 3-(5-(((3S*,4S*)-1-ethyl-4-fluoropiperidin-3-yl)oxy)-1-oxoisoindolin-2-yl)piperidine-2,6-dione]: the Dmax was determined as 44.9%, the remaining activity at 25 µM was found to be 55.1% and the DC50 was found to be 26 nM.

Turning to `CCN1CC[C@@H](F)[C@H](Oc2ccc3c(c2)CN(C2CCC(=O)NC2=O)C3=O)C1` (relative stereo) [Example 56, 3-(5-(((3R*,4R*)-1-ethyl-4-fluoropiperidin-3-yl)oxy)-1-oxoisoindolin-2-yl)piperidine-2,6-dione], the Dmax amounted to 16.2%, the remaining activity at 25 µM was found to be 83.8% and the DC50 turned out to be 950 nM.

Consider `CCN1CC[C@@H](F)[C@@H](Oc2ccc3c(c2)CN(C2CCC(=O)NC2=O)C3=O)C1` (relative stereo) [Example 57, 3-(5-(((3S*,4R*)-1-ethyl-4-fluoropiperidin-3-yl)oxy)-1-oxoisoindolin-2-yl)piperidine-2,6-dione], for which the Dmax was 16.9%, the remaining activity at 25 µM turned out to be 83.1% and the DC50 amounted to 170 nM.

On to `CCN1CC[C@H](F)[C@H](Oc2ccc3c(c2)CN(C2CCC(=O)NC2=O)C3=O)C1` (relative stereo) [Example 58, 3-(5-(((3R*,4S*)-1-ethyl-4-fluoropiperidin-3-yl)oxy)-1-oxoisoindolin-2-yl)piperidine-2,6-dione], for which the Dmax was determined as 60.7%, the remaining activity at 25 µM turned out to be 39.3% and the DC50 was found to be 4.9 nM.

In the case of `CCN1CC(Oc2ccc3c(c2)CN(C2CCC(=O)NC2=O)C3=O)CC2(CC2)C1` (single isomer, unassigned) [Example 18, 3-(5-((5-ethyl-5-azaspiro[2.5]octan-7-yl)oxy)-1-oxoisoindolin-2-yl)piperidine-2,6-dione], the DC50 was 20 nM and the “% degradation of WIZ (100 − Amax)” value was determined as 38.62%. Also, the “WIZ Amax” value under setting [1] was 61.38%.

For `CCN1CC(Oc2ccc3c(c2)CN(C2CCC(=O)NC2=O)C3=O)CC2(CC2)C1` (single isomer, unassigned) [Example 19, 3-(5-((5-ethyl-5-azaspiro[2.5]octan-7-yl)oxy)-1-oxoisoindolin-2-yl)piperidine-2,6-dione], the DC50 amounted to 12 nM and the “% degradation of WIZ (100 − Amax)” value was determined as 62.87%. Also, under setting [1], the “WIZ Amax” value worked out at 37.13%.

On to `CCN1C[C@H]2C[C@H]2[C@H](Oc2ccc3c(c2)CN(C2CCC(=O)NC2=O)C3=O)C1` (single isomer, unassigned) [Example 20, 3-(5-(((1S*,5S*,6R*)-3-ethyl-3-azabicyclo[4.1.0]heptan-5-yl)oxy)-1-oxoisoindolin-2-yl)piperidine-2,6-dione], for which the Dmax at 25 µM is 24.1% and the DC50 came to 3750 nM. Under setting [1], the remaining activity at 25 µM was found to be 75.9%.
